From article PMC9329436, “Optimization of the 4-anilinoquin(az)oline scaffold as epidermal growth factor receptor (EGFR) inhibitors for chordoma utilizing a toxicology profiling assay platform” (Scientific Reports, 2022)
Like-named read-outs stand apart in the source and are kept apart here.

Experiments:
Assay type in all cases: biochemical
[1] = target: T1, 320 wild-type protein kinases (Homo sapiens, UniProt P53778); details: p38-gamma, singlicate
T1 sequence (P53778 1-367): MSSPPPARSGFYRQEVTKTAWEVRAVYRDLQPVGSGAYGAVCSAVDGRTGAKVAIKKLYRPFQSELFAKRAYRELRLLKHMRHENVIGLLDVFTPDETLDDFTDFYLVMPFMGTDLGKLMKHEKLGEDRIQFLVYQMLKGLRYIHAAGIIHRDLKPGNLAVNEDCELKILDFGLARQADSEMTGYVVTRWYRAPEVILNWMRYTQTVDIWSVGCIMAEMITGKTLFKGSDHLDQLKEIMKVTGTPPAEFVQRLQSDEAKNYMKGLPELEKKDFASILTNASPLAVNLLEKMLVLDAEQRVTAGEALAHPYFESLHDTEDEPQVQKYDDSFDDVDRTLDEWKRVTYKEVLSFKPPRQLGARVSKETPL
Description: (§1) Table S4. Profiling of two compounds at two concentrations against 320 wild-type protein kinases; singlicate measurement; Residual activities (% of control).

[2] = target: 320 wild-type protein kinases (Homo sapiens, UniProt P29597); details: kinase TYK2, singlicate
Description: as §1

[3] = target: 320 wild-type protein kinases (Homo sapiens, UniProt P49840); details: GSK3-alpha, singlicate
Description: as §1

[4] = target: T2, 320 wild-type protein kinases (Homo sapiens, UniProt Q96KB5); details: PBK, singlicate
T2 sequence (Q96KB5 1-322): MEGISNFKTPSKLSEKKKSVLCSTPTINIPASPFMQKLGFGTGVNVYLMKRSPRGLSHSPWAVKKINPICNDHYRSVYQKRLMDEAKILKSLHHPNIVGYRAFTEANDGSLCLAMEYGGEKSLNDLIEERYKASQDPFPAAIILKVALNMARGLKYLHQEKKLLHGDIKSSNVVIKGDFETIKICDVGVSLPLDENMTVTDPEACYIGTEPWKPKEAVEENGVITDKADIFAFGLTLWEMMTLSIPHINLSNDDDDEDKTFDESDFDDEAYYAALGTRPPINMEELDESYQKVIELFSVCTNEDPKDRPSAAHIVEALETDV
Description: as §1

[5] = target: T3, 320 wild-type protein kinases (Homo sapiens, UniProt P45985); details: singlicate
T3 sequence (P45985 1-399): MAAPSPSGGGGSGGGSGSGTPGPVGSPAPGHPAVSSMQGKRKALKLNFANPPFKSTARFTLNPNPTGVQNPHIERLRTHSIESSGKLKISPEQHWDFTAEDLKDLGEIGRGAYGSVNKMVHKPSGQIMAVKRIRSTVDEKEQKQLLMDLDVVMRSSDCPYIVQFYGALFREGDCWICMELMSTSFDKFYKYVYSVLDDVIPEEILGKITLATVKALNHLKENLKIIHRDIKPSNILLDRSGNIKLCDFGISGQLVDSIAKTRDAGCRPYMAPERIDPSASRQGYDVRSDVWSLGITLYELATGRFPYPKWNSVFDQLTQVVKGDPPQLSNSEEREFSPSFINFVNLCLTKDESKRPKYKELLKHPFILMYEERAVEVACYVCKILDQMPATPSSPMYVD
Description: as §1

[6] = target: 320 wild-type protein kinases (Homo sapiens, UniProt O00311); details: singlicate
Description: as §1

[7] = target: T4, 320 wild-type protein kinases (Homo sapiens, UniProt Q12866); details: MERTK, singlicate
T4 sequence (Q12866 21-999): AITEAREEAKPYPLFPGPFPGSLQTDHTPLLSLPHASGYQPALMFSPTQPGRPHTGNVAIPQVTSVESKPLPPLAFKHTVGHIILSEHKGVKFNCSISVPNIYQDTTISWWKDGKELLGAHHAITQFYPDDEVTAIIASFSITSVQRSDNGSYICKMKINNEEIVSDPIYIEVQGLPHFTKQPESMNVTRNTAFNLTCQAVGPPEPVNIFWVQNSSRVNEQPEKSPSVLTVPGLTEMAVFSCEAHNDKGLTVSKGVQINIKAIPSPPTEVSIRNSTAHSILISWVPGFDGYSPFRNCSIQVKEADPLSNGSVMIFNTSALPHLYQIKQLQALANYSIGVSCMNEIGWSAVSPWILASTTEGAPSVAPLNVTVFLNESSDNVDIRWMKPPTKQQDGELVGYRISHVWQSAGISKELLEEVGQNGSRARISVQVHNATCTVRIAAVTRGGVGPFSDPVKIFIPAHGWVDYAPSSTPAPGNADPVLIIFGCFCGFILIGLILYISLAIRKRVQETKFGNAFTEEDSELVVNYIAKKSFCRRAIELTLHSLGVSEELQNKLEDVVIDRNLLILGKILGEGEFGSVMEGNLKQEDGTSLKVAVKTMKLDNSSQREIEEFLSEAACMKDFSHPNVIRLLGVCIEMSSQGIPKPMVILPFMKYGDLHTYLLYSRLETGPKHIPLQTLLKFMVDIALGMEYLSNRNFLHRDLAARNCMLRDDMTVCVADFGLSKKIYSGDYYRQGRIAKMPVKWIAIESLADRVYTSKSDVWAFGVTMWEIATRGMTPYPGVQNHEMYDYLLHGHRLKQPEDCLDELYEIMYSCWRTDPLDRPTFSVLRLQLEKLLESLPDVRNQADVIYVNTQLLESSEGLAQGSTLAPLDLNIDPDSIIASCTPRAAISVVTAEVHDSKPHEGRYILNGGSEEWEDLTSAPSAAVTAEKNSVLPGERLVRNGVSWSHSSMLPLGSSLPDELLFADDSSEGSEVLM
Description: as §1

[8] = target: 320 wild-type protein kinases (Homo sapiens, UniProt P53667); details: singlicate
Description: as §1

[9] = target: 320 wild-type protein kinases (Homo sapiens, UniProt P49336); details: CDK8/CycC, singlicate
Description: as §1

Sequence of 320 wild-type protein kinases (Homo sapiens, UniProt O00311) (O00311 whole entry): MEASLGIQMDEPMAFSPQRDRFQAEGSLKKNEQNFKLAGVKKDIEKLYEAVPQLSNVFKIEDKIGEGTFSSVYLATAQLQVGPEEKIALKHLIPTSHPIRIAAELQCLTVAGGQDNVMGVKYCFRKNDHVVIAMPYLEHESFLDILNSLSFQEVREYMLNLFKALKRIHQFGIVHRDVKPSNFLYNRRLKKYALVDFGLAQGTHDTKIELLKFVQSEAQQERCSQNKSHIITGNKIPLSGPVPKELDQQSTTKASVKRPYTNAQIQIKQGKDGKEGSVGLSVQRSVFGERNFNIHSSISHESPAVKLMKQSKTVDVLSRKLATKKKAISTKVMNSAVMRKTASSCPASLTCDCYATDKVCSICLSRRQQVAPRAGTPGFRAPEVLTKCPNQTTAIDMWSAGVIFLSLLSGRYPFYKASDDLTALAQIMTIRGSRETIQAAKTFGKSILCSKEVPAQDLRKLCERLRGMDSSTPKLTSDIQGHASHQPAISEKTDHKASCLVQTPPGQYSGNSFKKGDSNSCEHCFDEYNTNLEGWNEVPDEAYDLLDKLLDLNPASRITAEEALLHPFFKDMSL
Sequence of 320 wild-type protein kinases (Homo sapiens, UniProt P49336) (P49336 whole entry): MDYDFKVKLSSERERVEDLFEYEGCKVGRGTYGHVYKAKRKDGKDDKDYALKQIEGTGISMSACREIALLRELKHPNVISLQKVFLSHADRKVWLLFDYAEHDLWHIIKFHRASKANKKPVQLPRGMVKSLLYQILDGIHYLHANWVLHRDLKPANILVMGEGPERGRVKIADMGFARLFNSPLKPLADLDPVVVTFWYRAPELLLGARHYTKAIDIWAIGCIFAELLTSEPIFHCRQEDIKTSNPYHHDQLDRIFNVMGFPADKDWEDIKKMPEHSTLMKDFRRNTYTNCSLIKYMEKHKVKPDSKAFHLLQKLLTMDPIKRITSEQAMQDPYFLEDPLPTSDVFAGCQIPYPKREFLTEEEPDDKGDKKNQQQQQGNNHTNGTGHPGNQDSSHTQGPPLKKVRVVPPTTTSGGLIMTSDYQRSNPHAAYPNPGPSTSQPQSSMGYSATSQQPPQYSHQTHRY
Sequence of 320 wild-type protein kinases (Homo sapiens, UniProt P53667) (P53667 whole entry): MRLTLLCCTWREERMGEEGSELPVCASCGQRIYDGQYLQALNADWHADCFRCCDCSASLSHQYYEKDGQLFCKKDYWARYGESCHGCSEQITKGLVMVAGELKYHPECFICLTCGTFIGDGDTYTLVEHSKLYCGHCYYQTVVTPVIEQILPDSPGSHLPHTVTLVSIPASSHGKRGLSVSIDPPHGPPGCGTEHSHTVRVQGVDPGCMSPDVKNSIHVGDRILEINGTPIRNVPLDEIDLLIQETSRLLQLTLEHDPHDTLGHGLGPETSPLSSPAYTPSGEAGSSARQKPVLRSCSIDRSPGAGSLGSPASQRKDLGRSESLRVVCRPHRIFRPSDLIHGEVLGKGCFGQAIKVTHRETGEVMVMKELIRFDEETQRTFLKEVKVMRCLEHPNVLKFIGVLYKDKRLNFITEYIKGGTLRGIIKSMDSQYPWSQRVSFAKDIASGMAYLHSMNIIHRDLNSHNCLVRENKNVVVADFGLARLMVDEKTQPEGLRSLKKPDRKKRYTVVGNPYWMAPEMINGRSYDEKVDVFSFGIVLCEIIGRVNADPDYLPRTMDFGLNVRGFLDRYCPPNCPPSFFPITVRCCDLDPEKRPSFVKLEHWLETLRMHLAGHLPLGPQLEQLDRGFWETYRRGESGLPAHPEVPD
Sequence of 320 wild-type protein kinases (Homo sapiens, UniProt P49840) (P49840 whole entry): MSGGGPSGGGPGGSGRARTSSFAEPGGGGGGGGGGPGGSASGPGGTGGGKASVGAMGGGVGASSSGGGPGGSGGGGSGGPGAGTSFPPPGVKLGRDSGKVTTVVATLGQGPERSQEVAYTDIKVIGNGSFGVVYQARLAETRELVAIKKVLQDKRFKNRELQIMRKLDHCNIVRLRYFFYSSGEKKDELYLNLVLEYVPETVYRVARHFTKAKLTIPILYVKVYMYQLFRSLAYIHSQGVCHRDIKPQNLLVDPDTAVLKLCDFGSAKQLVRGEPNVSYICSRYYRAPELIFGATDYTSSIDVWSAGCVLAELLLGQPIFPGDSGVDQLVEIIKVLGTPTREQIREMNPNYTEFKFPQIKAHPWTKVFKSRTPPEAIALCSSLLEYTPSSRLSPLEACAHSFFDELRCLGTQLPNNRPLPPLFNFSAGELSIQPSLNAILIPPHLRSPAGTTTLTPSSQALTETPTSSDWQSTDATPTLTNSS
Sequence of 320 wild-type protein kinases (Homo sapiens, UniProt P29597) (P29597 whole entry): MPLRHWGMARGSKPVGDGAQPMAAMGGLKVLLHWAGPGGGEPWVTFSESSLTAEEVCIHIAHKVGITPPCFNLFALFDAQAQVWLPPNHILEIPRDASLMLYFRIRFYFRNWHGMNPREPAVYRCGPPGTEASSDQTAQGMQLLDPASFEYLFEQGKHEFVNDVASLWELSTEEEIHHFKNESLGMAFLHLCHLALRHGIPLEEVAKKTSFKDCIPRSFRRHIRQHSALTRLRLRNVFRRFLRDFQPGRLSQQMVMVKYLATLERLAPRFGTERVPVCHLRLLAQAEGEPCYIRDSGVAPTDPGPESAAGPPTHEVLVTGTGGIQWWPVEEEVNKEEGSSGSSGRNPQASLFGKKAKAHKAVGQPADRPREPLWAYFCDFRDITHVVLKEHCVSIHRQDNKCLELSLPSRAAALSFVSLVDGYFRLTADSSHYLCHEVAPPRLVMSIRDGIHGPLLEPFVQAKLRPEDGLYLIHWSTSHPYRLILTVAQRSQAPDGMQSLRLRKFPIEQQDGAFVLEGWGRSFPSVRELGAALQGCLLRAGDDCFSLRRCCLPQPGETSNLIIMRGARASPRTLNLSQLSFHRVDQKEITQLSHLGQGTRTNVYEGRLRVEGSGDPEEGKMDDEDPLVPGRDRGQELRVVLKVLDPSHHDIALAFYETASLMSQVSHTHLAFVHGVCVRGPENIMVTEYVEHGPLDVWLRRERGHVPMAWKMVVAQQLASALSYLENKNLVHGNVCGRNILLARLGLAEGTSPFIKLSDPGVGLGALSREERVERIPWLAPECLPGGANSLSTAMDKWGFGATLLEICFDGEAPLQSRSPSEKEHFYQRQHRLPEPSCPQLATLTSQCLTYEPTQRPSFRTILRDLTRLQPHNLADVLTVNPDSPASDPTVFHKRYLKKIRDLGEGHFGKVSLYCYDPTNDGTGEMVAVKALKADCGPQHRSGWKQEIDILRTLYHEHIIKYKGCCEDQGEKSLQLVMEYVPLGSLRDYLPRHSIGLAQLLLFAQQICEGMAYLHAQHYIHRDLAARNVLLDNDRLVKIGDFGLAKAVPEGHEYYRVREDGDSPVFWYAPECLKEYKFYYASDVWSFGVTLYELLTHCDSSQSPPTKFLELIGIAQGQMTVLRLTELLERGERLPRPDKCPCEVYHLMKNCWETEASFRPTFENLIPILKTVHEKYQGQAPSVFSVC

SMILES	Residual activity ([1]; 1.0E-06 M)	Residual activity ([1]; 1.0E-07 M)	Residual activity, TYK2 ([2]; assay conc. 1.0E-06 M)	Residual activity, TYK2 ([2]; assay conc. 1.0E-07 M)	Residual activity ([3]; 1.0E-06 M)	Residual activity ([3]; 1.0E-07 M)	Residual activity ([4]; 1.0E-06 M)	Residual activity ([4]; 1.0E-07 M)	Residual activity ([5]; MKK4, 1.0E-06 M)	Residual activity ([5]; MKK4, 1.0E-07 M)	Residual activity ([6]; CDC7/DBF4, 1.0E-06 M)	Residual activity ([6]; CDC7/DBF4, 1.0E-07 M)	Residual activity ([7]; 1.0E-06 M)	Residual activity ([7]; 1.0E-07 M)	Residual activity ([8]; LIMK1, 1.0E-06 M)	Residual activity ([8]; LIMK1, 1.0E-07 M)	Residual activity ([9]; 1.0E-06 M)	Residual activity ([9]; 1.0E-07 M)
C#Cc1cc(Nc2ncnc3cc(I)ccc23)ccc1Cl [Compound 41]	78 % of control	87 % of control	94 % of control	101 % of control	143 % of control	148 % of control	110 % of control	98 % of control	93 % of control	87 % of control	90 % of control	89 % of control	102 % of control	103 % of control	86 % of control	101 % of control	92 % of control	91 % of control
C#Cc1cc(Nc2ncnc3cc(OC)c(OC)cc23)ccc1Cl [Compound 45]	85 % of control	90 % of control	114 % of control	96 % of control	122 % of control	136 % of control	80 % of control	91 % of control	96 % of control	88 % of control	88 % of control	107 % of control	83 % of control	97 % of control	90 % of control	103 % of control	95 % of control	97 % of control
